Tests used:
Type in all cases: physicochemical
[1] = tested on: bacteria or other biological agents known to degrade such fluids; assay: Viscosity of guar fluid after aging at 25° C. in a non-sterile environment (biocidal activity on a guar system); conditions: relatively dilute concentrations; period of at least 6 days
Text: For purposes herein, aging of a fluid (e.g., a solution or mixture) in a non-sterile environment for purposes of determining the inhibition of biological degradation of the fluid may include the steps of preparing and characterizing a fluid in a non-sterile environment followed by allowing the fluid to age in the non-sterile environment (or non-sterile container) which is, or which has been in fluid communication with an external environment such that the fluid has been exposed to the ambient environment which inherently contains bacteria or other biological agents known to degrade such fluids at room temperature (i.e., 25° C.), followed by characterizing the aged fluid in essentially the same way under the same conditions using the same method utilized to characterize the fluid initially. […] The biocidal activity of a 2-oxo-aldehyde having 3 or more carbon atoms such as methylglyoxal on a guar system was evaluated. […] Samples were maintained at room temperature and their viscosities were measured directly after their preparation (in a non-sterile environment) and then again determined after the different periods of time aging at 25° C. in a non-sterile environment as indicated. The viscosity of sample B was determined initially and then again after 1, 2, 3, and 6 days of aging at 25° C. in a non-sterile environment, i.e., in a covered beaker on a lab bench. […]

[2] = Vortex closure time of boron-crosslinked guar solution, initially and after aging
Procedure: The effects of the biocide on cross linking were evaluated. It is known that chemical contamination may have a detrimental impact on the cross linking of guar and other polymers. The impact of 2-oxo-aldehyde such as MGO on guar crosslinking was evaluated using the vortex closure time of a solution of guar. Vortex closure time is determined by charging a portion of the gel in a blender and measuring the time required for the vortex produced upon initiation of mixing the solution in the blender to close. […] In other words, a non-crosslinked or minimally crosslinked mixture with have an infinite vortex closure time. The higher the level of crosslinking, the shorter the vortex closure time once mixing is initiated.
A comparative sample E and a sample F were prepared by mixing 0.5 g of guar in 99.5 g water and mixing in the blender. Sample F further included 0.4 g MGO solution (0.16 g of MGO). No vortex closure occurred while mixing the uncrosslinked samples. Next, an amount of a Boron based crosslinking agent was added to each of the mixing samples and the initial vortex closure time was measured as shown in Table 4. The vortex closure time was then measured after 4 days of aging at room temperature (25° C.) in a non-sterile environment, and then again after 6 days of aging at 25° C. […] The data also confirm that biological degradation has a pronounced effect on cross-linking.

[3] = Breaking schedule of crosslinked guar gel with oxidizer (breaker), viscosity at 66° C.; conditions: shear rate 100 sec^-1, 66° C. (150° F.)
Procedure: Two samples were evaluated to determine the impact of the MGO on the breaking schedule of a guar solution. The viscosity of each sample was measured at a shear rate of 100 sec^−1 while aging at 66° C. (150° F.) in the presence of an oxidizer (a breaker) to determine the effect 2-oxo-aldehyde such as MGO has on gel stability. The data is shown graphically in FIG. 4.

[4] = tested on: biological degradation of the concentrated guar fluids; assay: Viscosity of highly concentrated guar fluids (water in water emulsion) after aging and dilution; conditions: ~200 ppt guar
Procedure: The efficacy of 2-oxo-aldehyde such as MGO as a biocide was investigated on highly concentrated guar fluids (˜200 ppt) produced as a water in water emulsion. Comparative sample G and sample H were prepared without and with MGO respectively. After dilution of the concentrated fluids (1 part of sample to 4 parts of water) their rheological properties were measured after 0, 1, 2, 3, and 4 days. The data are shown graphically in FIG. 5. […] After three days of aging at 25° C., comparative sample G (without MGO) presents a much lower viscosity than its initial value at day 0, i.e. the fluid in comparative sample G has been degraded.

CC(=O)C=O [MGO, methylglyoxal]
Effectiveness in reducing biological degradation of the guar fluid [1]: effective in reducing biological degradation | Impact on the vortex closure time ([2]; 160 mg/L (0.4 gpt), even after several days): does not have any impact on the vortex closure time | Interference with crosslinking of the polymer ([2]; boron based crosslinking agent, guar): does not prevent or interfere with the crosslinking | Impact on the breaking schedule of a guar gel (FIG. 4) [3]: does not have a significant impact on the breaking schedule | Prevention of biological degradation of concentrated guar fluids [4]: has prevented biological degradation

From patent US20150075790A1, “OILFIELD BIOCIDE” (SCHLUMBERGER TECHNOLOGY CORPORATION, priority 2013, published 2015)
